Bridge positions count the residues as written; N and C are the ends. Peptide text beside a SMILES is read from it.

One experiment concerns the target T1, hKv1.2 (Homo sapiens, UniProt P16389).
T1 construct: expressed in transfected cells; host or cells: CHO-K1
The experiment is described as follows: Whole-cell patch clamp, Kv1.2 ionic current in CHO-K1 cells. The experiment is classed as cell-based. The settings on record: +30 mV, 500 ms, holding −80 mV, mean ± SD, n = 4–7, read-out: IC50, inhibition of Kv1.2 current (full inhibition). As for the experimental part: (§1) The cDNA of hKv1.1, hKv1.2, hKv1.3, rKv1.4, hKv1.5, mKv1.6, and hKv1.7 were subcloned into mammalian expression vectors pcDNA3.1 or pCMV-blank vectors, as well as other plasmids described previously ([35]). Channel mutants were generated by site-directed mutations. Briefly, the parental channel plasmid was amplified using a pair of oppositely directed primers harboring the designed mutation site, with KOD Fx (TOYOBO Co, Ltd). The resulting PCR mix was treated with FastDigest DpnI (Thermo Fisher Scientific) to remove the methylated template. Ten microliters of the digested product was then used to transform 100 μl E. coli DH5α competent cells. […]
(§2) CHO-K1 cells were selected for expressing Kv channels due to their lack of endogenous Kv channels, while HEK293 or ND7/23 cells were used for Nav and Cav channel expression. […] After 4 to 6 h transfection, cells were seeded onto poly-lysine–coated coverslips, and 24 to 36 h later, transfected cells were ready for patch-clamp analysis. […]
(§3) For Kv current recordings, the bath solution contained (in mM) the following: 140 NaCl, 5 KCl, 1 MgCl2, 2 CaCl2, 10 glucose, and 10 Hepes (pH 7.3, adjusted with NaOH), and the pipette solution contained (in mM) the following: 140 KCl, 2.5 MgCl2, 11 EGTA, and 10 Hepes (pH 7.3, adjusted with KOH). […] The steady-state fast inactivation of Kv1.3 was measured using a two-pulses protocol. […]

A further experiment concerns the target T2, hKv1.7 (Homo sapiens, UniProt Q96RP8).
T2 construct: expressed in transfected cells; host or cells: CHO-K1
The experiment in a line: Whole-cell patch clamp, Kv1.7 ionic current in CHO-K1 cells. Conditions: mean ± SD. Format: cell-based. Here is the method: as §1, §2, §3

For experiment [1], the system named is Kv1.3/Kv1.4 S3-S4 chimeric channel. The experiment is described as follows: Whole-cell patch clamp, chimeric channel. Conditions: +30 mV, mean ± SD, n = 5-6. Format: cell-based, human/rat.
From the text: To investigate the structural determinants underlying the differential regulatory effects of MrVIII on Kv1 channels, we employed a chimeric channel strategy. Using Kv1.3 as the template, the S1-S2, S3-S4, and S5-S6 transmembrane helices and their respective linkers from Kv1.1 were inserted to generate chimeras, generating the Kv1.3/1.1 S1-S2, Kv1.3/1.1 S3-S4, and Kv1.3/1.1 S5-S6 chimeric channels. […] These findings indicate that the S3-S4 is the key determinant for the differential inhibition of Kv1.1 and Kv1.3 by MrVIII. To further validate this conclusion, we constructed a reverse chimeric channel using Kv1.1 as the template, inserting the corresponding regions from Kv1.3 into Kv1.1. […] This finding more directly illustrates the exchange of the channel's voltage-dependence phenotype in toxin inhibition by swapping this S3-S4 between Kv1.1 and Kv1.3. […] In addition to confirming the differential role of S3-S4 between Kv1.1 and Kv1.3, we also substituted the S3-S4 of Kv1.4 and Kv1.7 into Kv1.3 to analyze MrVIII's inhibition profile. […]
as §2

T2 sequence (Q96RP8 whole entry): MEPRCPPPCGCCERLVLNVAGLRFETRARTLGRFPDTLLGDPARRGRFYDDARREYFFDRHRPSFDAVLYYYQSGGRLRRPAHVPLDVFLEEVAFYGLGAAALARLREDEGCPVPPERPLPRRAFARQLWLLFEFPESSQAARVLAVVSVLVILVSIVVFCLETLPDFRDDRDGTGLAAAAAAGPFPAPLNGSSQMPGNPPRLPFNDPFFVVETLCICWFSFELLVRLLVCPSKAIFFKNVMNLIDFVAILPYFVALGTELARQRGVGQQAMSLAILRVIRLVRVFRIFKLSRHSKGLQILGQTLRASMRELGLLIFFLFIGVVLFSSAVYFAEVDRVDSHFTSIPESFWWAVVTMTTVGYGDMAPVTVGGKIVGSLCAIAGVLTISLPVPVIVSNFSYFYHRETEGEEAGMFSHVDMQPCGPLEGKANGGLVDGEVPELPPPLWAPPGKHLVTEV
T1 sequence (P16389 whole entry): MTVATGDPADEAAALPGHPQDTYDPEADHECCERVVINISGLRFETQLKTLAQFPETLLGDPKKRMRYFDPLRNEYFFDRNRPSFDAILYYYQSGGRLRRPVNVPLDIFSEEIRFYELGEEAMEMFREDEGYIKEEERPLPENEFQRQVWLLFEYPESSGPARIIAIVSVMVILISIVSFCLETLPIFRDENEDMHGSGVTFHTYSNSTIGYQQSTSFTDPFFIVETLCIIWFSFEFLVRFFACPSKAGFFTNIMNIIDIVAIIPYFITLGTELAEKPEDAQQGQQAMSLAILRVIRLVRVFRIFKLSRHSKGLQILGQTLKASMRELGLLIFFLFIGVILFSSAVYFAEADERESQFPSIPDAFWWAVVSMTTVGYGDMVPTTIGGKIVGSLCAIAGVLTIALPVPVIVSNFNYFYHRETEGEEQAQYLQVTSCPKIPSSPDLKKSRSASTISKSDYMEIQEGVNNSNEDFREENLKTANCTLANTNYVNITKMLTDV

Consider `CC[C@H](C)[C@@H]1NC(=O)[C@H](Cc2ccc(O)cc2)NC(=O)[C@H](CCC(N)=O)NC(=O)[C@@H]2CCCN2C(=O)[C@@H]2CSSC[C@H](NC(=O)[C@H](C)NC(=O)[C@H](CO)NC(=O)[C@H](CCC(=O)O)NC(=O)[C@H](CCC(=O)O)NC(=O)[C@@H](N)[C@@H](C)O)C(=O)NCC(=O)NCC(=O)N[C@@H](Cc3ccccc3)C(=O)N[C@@H](CC(N)=O)C(=O)N[C@@H](C)C(=O)N[C@@H](CCCNC(=N)N)C(=O)N[C@H]3CSSC[C@H](NC1=O)C(=O)N[C@@H](CCCCN)C(=O)NCC(=O)N[C@@H](Cc1c[nH]c4ccccc14)C(=O)N[C@@H](CCCNC(=N)N)C(=O)N[C@@H]([C@@H](C)O)C(=O)N[C@@H](CCCCN)C(=O)N[C@@H](CCCNC(=N)N)C(=O)N[C@H](C(=O)N[C@@H](CC(C)C)C(=O)N[C@@H](CC(N)=O)C(=O)N1CCC[C@H]1C(=O)O)CSSC[C@H](NC(=O)[C@H](CCCCN)NC(=O)[C@H](Cc1c[nH]cn1)NC(=O)[C@H](CC(C)C)NC(=O)[C@@H]1CCCN1C3=O)C(=O)N2` [MrVIII] (H-TEESACGGFNARCPLHKCCPQYICKGWRTKRCLNP-OH; disulfide 6-19, 13-24, 18-32; N-terminus and C-terminus assumed), for which the half-inhibitory concentration (IC50) worked out at 0.5 ± 0.1 nM at hKv1.2; 199 ± 50.3 nM at hKv1.7 (current measured at 50 ms of a 500 ms depolarization to +30 mV, n = 4–7); 117 ± 48.2 nM in experiment [1] (current at 50 ms). Besides, the “inhi%(495 ms), Kv1.7 current” value at hKv1.7 (10 μM (saturating), current at 495 ms, +30 mV) is 33.3 ± 3.0%. For the same molecule, the “inhi%(495 ms), Kv1.3/Kv1.4 S3-S4 current” value in experiment [1] (current at 495 ms) is reported as 37.9 ± 5.4%.

The values above are taken from paper PMC11984586, “A novel spider toxin as a selective antagonist of the Kv1 subfamily of voltage-gated potassium channels through gating modulation” (The Journal of Biological Chemistry, 2025).
